Measurements taken from ChEMBL document CHEMBL4351016 (Eur J Med Chem, 2019).
The source made the active and inactive calls. The rule behind the calls is not given here.

Assays:
CWR22R [1] = test: Antiproliferative activity against AR-positive human 22Rv1 cells harboring ARE14 construct assessed as growth inhibition after 24 hrs by resazurin dye based fluorescence assay; format: functional; settings: 22Rv1, 24 h
BJ = test: Antiproliferative activity against human BJ cells assessed as growth inhibition after 24 hrs by resazurin dye based fluorescence assay; format: functional
[2] = biological target: T1, Androgen receptor (Homo sapiens) (UniProt P10275); test: Inhibition of AR transcriptional activity in AR-positive human 22Rv1 cells harboring ARE14 construct assessed as downregulation of NKX3.1 protein expression at 5 uM after 24 hrs by immunoblot analysis
T1 sequence (whole entry): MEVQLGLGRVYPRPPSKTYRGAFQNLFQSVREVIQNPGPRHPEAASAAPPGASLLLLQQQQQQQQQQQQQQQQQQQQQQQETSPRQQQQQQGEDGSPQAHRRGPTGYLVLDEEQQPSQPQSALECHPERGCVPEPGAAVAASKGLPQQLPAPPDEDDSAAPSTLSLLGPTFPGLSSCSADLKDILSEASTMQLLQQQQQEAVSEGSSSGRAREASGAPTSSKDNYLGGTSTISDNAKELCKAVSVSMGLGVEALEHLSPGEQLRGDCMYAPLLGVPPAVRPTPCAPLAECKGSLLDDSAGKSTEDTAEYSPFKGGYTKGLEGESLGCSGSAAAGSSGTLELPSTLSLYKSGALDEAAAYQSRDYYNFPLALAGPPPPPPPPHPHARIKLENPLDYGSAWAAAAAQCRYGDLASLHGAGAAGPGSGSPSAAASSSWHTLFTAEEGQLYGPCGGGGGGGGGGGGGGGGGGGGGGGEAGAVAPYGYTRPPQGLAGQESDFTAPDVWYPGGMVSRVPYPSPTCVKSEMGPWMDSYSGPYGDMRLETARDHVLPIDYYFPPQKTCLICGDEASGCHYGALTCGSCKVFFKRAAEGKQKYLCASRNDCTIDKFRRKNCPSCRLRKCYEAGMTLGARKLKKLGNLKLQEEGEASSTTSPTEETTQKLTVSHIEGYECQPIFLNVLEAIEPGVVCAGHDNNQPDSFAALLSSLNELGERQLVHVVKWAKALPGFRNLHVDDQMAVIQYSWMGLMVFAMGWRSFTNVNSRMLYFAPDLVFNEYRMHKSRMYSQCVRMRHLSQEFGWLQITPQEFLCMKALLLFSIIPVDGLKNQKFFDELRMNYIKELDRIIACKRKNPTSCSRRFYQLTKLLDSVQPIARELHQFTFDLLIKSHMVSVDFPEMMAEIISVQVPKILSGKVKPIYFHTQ

PC-3 = test: Antiproliferative activity against AR-negative human PC3 cells assessed as growth inhibition after 72 hrs by resazurin dye based fluorescence assay; format: functional; settings: PC-3, 72 h
VCaP [3] = test: Antiproliferative activity against AR-positive human VCaP cells assessed as growth inhibition after 72 hrs by resazurin dye based fluorescence assay; format: functional
CWR22R [4] = test: Antiproliferative activity against AR-positive human 22Rv1 cells harboring ARE14 construct assessed as growth inhibition after 72 hrs by resazurin dye based fluorescence assay; format: functional; settings: 22Rv1, 72 h
LNCaP C4-2 [5] = test: Antiproliferative activity against AR-positive human C4-2 cells assessed as growth inhibition after 72 hrs by resazurin dye based fluorescence assay; format: functional; settings: LNCaP C4-2, 72 h
[6] = biological target: T1, Androgen receptor (Homo sapiens); test: Inhibition of AR transcriptional activity in AR-positive human 22Rv1 cells harboring ARE14 construct assessed as decrease in PSA protein expression at 5 uM after 24 hrs by immunoblot analysis
CWR22R [7] = test: Effect on AR-V7 protein expression in AR-positive human 22Rv1 cells harboring ARE14 construct at 5 uM after 24 hrs by immunoblot analysis; format: functional, cell-based
LNCaP C4-2 [8] = test: Antiproliferative activity against AR-positive human C4-2 cells assessed as cell viability at 40 uM after 72 hrs by resazurin dye based fluorescence assay; format: functional; settings: LNCaP C4-2, 72 h, read-out: Activity
VCaP [9] = test: Antiproliferative activity against AR-positive human VCaP cells assessed as cell viability at 40 uM after 72 hrs by resazurin dye based fluorescence assay; format: functional; settings: read-out: Activity

NKX3.1 protein downregulation (active/not active) [2] | GI50 (PC-3) | GI50 (VCaP [3]) | GI50 (LNCaP C4-2 [5]) | PSA protein decrease (active/not active) [6] | SMILES | GI50 (CWR22R [1]) | GI50 (BJ) | GI50 (CWR22R [4]) | Activity (CWR22R [7]) | viability at 40 µM (LNCaP C4-2 [8]) | viability at 40 µM (VCaP [9])
inactive | > 50 µM | > 50 µM | 22.5 µM | inactive | CC(=O)O[C@H]1CC[C@@]2(C)C(=CC[C@@H]3[C@@H]2CC[C@]2(C)c4c(C)nc5nc6ccccc6n5c4C[C@@H]32)C1 | > 50 µM | 44.9 µM | 7.2 µM | inactive |  | 
inactive | > 50 µM | > 50 µM | 36.5 µM | inactive | CC(=O)O[C@H]1CC[C@@]2(C)C(=CC[C@@H]3[C@@H]2CC[C@]2(C)c4c(C)nc5nc6cc(C)c(C)cc6n5c4C[C@@H]32)C1 | > 50 µM | > 50 µM | 40 µM | inactive |  | 
Active | > 50 µM | > 50 µM | 1.1 µM | Active | COc1ccc2c(C)c3c(nc2n1)C[C@H]1[C@@H]2CC=C4C[C@@H](O)CC[C@]4(C)[C@H]2CC[C@]31C | > 50 µM | > 50 µM | 4.3 µM | inactive |  | 
 | > 50 µM |  | > 50 µM |  | CC(=O)O[C@H]1CC[C@@]2(C)C(=CC[C@@H]3[C@@H]2CC[C@@]2(C)[C@H]3C[C@@H]3C(=O)[C@@]2(C)Nc2nc4cc(Cl)ccc4n23)C1 |  |  | > 50 µM |  |  | 
Active | 7.8 µM | 20.7 µM | 12.7 µM |  | Cc1nc(N2CCc3ccccc3C2)nc2c1[C@@]1(C)CC[C@H]3[C@@H](CC=C4C[C@@H](O)CC[C@@]43C)[C@@H]1C2 | > 50 µM | 22.5 µM | 12.4 µM | inactive |  | 
inactive | > 50 µM | > 50 µM | > 50 µM | inactive | CC(=O)O[C@H]1CC[C@@]2(C)C(=CC[C@@H]3[C@@H]2CC[C@@]2(C)[C@H]3C[C@@H]3C(=O)[C@@]2(C)Nc2nc4cc(C)c(C)cc4n23)C1 | > 50 µM | > 50 µM | 7.4 µM | inactive |  | 
inactive | 11.5 µM | > 50 µM | > 50 µM | inactive | C[C@]12CC[C@H](O)CC1=CC[C@@H]1[C@@H]2CC[C@]2(C)/C(=N/n3cnc4ccccc43)CC[C@@H]12 | > 50 µM | > 50 µM | > 50 µM | inactive |  | 
 | > 50 µM |  | > 50 µM |  | CC(=O)O[C@H]1CC[C@@]2(C)C(=CC[C@@H]3[C@@H]2CC[C@@]2(C)[C@H]3C[C@@H]3C(=O)[C@@]2(C)Nc2nc4ccc(Cl)cc4n23)C1 |  |  | > 50 µM |  |  | 
inactive | > 50 µM | > 50 µM | 24.4 µM | inactive | CC(=O)O[C@H]1CC[C@@]2(C)C(=CC[C@@H]3[C@@H]2CC[C@]2(C)c4c(C)nc5nc6ccc(Cl)cc6n5c4C[C@@H]32)C1 | > 50 µM | 50 µM | 29.9 µM | inactive |  | 
inactive | > 50 µM | > 50 µM | 34.1 µM | inactive | CC(=O)O[C@H]1CC[C@@]2(C)C(=CC[C@H]3[C@@H]4C[C@@H](Nc5nc6ccccc6s5)[C@H](C(C)=O)[C@@]4(C)CC[C@@H]32)C1 | > 50 µM | > 50 µM | 13.2 µM | inactive |  | 
inactive | > 50 µM | > 50 µM | > 50 µM | inactive | CC(=O)O[C@H]1CC[C@@]2(C)C(=CC[C@@H]3[C@@H]2CC[C@]2(C)c4c(C)nc5nc6cc(Cl)ccc6n5c4C[C@@H]32)C1 | > 50 µM | > 50 µM | > 50 µM | inactive |  | 
inactive | > 50 µM | > 50 µM | > 50 µM | inactive | CC(=O)O[C@H]1CC[C@@]2(C)C(=CC[C@@H]3[C@@H]2CC[C@]2(C)c4c(C)nc5nccn5c4C[C@@H]32)C1 | > 50 µM | > 50 µM | 26.3 µM | inactive |  | 
inactive | > 50 µM | > 50 µM | 18 µM | inactive | CC(=O)O[C@H]1CC[C@@]2(C)C(=CC[C@@H]3[C@@H]2CC[C@@]2(C)[C@H]3C[C@@H]3C(=O)[C@@]2(C)Nc2nc4ccccc4n23)C1 | > 50 µM | > 50 µM | 5.4 µM | inactive |  | 
inactive | 29.5 µM | 20.3 µM | 11.9 µM | inactive | CC(=O)O[C@H]1CC[C@@]2(C)C(=CC[C@H]3[C@@H]4C[C@@H](Nc5nc6ccccc6[nH]5)[C@@H](C(C)=O)[C@@]4(C)CC[C@@H]32)C1 | > 50 µM | 48.3 µM | 6.2 µM | inactive |  | 
 | 37.7 µM | > 40 µM | > 40 µM |  | C[C@]12CC[C@H](O)CC1=CC[C@@H]1[C@@H]2CC[C@]2(C)C(n3cnc4ccccc43)=CC[C@@H]12 [GALETERONE] |  |  | 37.8 µM |  | 74.3% | 57.2%
inactive | > 50 µM | > 50 µM | > 50 µM | inactive | CC(=O)O[C@H]1CC[C@@]2(C)C(=CC[C@@H]3[C@@H]2CC[C@]2(C)c4c(C)nc5c(c4C[C@@H]32)c2ccccc2n5C)C1 | > 50 µM | > 50 µM | > 50 µM | inactive |  | 
